Experimental data published in patent US10160705B2, “Class of HDAC inhibitors expands the renal progenitor cells population and improves the rate of recovery from acute kidney injury” (University of Pittsburgh—Of the Commonwealth System of …, priority 2011, dated 2018).

Tested on: renal progenitor cells
Experiment: In situ hybridization for lhx1a expression in 10-somite embryos (renal progenitor cell expansion)
Type: in vivo
Conditions: for responders at 0.8 µM / responders at 1.5 µM / responders at 3 µM / EC50 / responders at 0.4 µM / responders at 0.2 µM: Danio rerio; for responders at 0.8 µM / responders at 1.5 µM / responders at 3 µM / responders at 0.4 µM / responders at 0.2 µM: percent of embryos with expanded kidney field; for responders at 0.8 µM: 800 nM, read-out: Expansion of Cells (including repeats* and recounts**) 800 nM; for responders at 1.5 µM: read-out: Expansion of Cells (including repeats* and recounts**) 1.5 μM; for responders at 3 µM: read-out: Expansion of Cells (including repeats* and recounts**) 3 μM; for EC50: first pass EC50 from percent expansion (Excel trendline), average where several experiments; for responders at 0.4 µM: 400 nM, read-out: Expansion of Cells (including repeats* and recounts**) 400 nM; for responders at 0.2 µM: 200 nM, read-out: Expansion of Cells (including repeats* and recounts**) 200 nM
Experimental: PTBA was synthesized as described below. Hydroxyurea and aphidicolin were obtained from Sigma-Aldrich.
In situ hybridization and immunocytochemistry: In situ hybridization was performed as previously described with some modifications.142 Hybridization temperature was 65° C. Embryos were blocked in 2% blocking reagent (Roche) with 5% sheep serum in MAB (100 mM maleic acid and 150 mM NaCl [pH 7.5]). Whole-mount immunocytochemistry with 1:25 mouse anti-α6F antibody (Developmental Studies Hybridoma Bank) and 1:100 Cy3 secondary antibody (Jackson ImmunoResearch) was performed as described previously.108 Embryos were embedded in JB-4 for sectioning per the manufacturer's instructions (Polysciences), sectioned at 5 μm, and mounted with Cytoseal 60 (Richard-Allan Scientific).
The remaining PTBA analogs were synthesized.
In situ hybridization for lhx1a was performed as described above. […] Compounds were classified as effective, partially-effective or ineffective based on comparison to the effects of PTBA at a given concentration.
Testing of the compounds is on-going, but for those tested, Table 6 provides first pass EC50s based upon colormetric in situ hybridizations for the Lhx1a mRNA expression levels. After the procedure is run, in situ hybridization is done for the lhx1 mRNA expression and the number of embryos that show an expanded kidney field is manually counted to establish the percent of embryos showing expansion. Then the EC50 is determined by plotting the percent expansion in Excel, graphing the results and using the trendline function to determine the 50 percent point.

| SMILES | lhx1a expansion, percent of treated embryos (3 μM from 2 hpf, 10-somite embryos) | responders at 0.8 µM [%] | responders at 1.5 µM [%] | responders at 3 µM [%] | EC50 [nM] | responders at 0.4 µM [%] | responders at 0.2 µM [%] |
| --- | --- | --- | --- | --- | --- | --- | --- |
| NC(CCSc1ccccc1)C(=O)O (stereo not drawn) [Compound 2-amino-PTBA, 2-amino-PTBA, reference compound] | no expansion | – | – | – | – | – | – |
| COC(=O)CCCCSc1ccc(F)cc1 [UPHD-00032, methyl 5-[(4-fluoro-phenyl)sulfanyl]pentanoate] | – | 0 | 0 | 0 | > 3000 | – | – |
| COC(=O)CCCCSc1ccccc1 [UPHD-00033, methyl 5-(phenylsulfanyl)pentanoate] | – | 0 | 5 | 11 | > 3000 | – | – |
| O=C(CCCCSc1ccc(F)cc1)NO [UPHD-00034, 5-[(4-fluoro-phenyl)sulfanyl]-N-hydroxypentanamide] | – | – | – | – | – | 10 | – |
| O=C(CCCCSc1ccccc1)NO [UPHD-00035, N-hydroxy-5-(phenyl-sulfanyl)pentanamide] | – | 0 | 0 | 21.1 | > 3000 | 10 | 25 |
| Nc1ccccc1NC(=O)CCCSc1ccccc1 [UPHD-00036, N-(2-aminophenyl)-4-(phenylsulfanyl)butanamide] | – | 45 | 85 | 100 | – | – | – |
| Nc1ccccc1NC(=O)CCCCSc1ccc(F)cc1 [UPHD-00037, N-(2-aminophenyl)-5-[(4-fluoro-phenyl)sulfanyl]pentanamide] | – | – | – | – | 2590 | – | 10 |
| Nc1ccccc1NC(=O)CCCCSc1ccccc1 [UPHD-00038, N-(2-aminophenyl)-5-(phenylsulfanyl)pentanamide] | – | 58 | 81 | 85 | – | – | – |
| COC(=O)CCCCCCSc1ccc(F)cc1 [UPHD-00039, methyl 7-[(4-fluor-phenyl)sulfanyl]heptanoate] | – | 20 | 35 | 11 | > 3000 | – | – |
| COC(=O)CCCCCCSc1ccccc1 [UPHD-00040, methyl 7-(phenylsulfanyl)heptanoate] | – | 6 | 15 | 45 | > 3000 | – | – |
| O=C(CCCCCCSc1ccccc1)NO [UPHD-00041, N-hydroxy-7-(phenyl-sulfanyl)heptanamide] | – | 0 | 0 | 0 | > 3000 | – | – |
| O=C(CCCCCCSc1ccc(F)cc1)NO [UPHD-00042, 7-[(4-fluoro-phenyl)sulfanyl]-N-hydroxyheptanamide] | – | – | – | – | > 3000 | – | – |
| Nc1ccccc1NC(=O)CCCCCCSc1ccc(F)cc1 [UPHD-00043, N-(2-aminophenyl)-7-[(4-fluoro-phenyl)sulfanyl]heptanamide] | – | – | – | 57 | 3000 | 15 | 0 |
| Nc1ccccc1NC(=O)CCCCCCSc1ccccc1 [UPHD-00044, N-(2-aminophenyl)-7-(phenylsulfanyl)heptanamide] | – | – | – | – | 1490 | – | – |
| COC(=O)c1ccc(CSc2ccccc2)cc1 [UPHD-00045, methyl 4[(phenyl-sulfanyl)methyl]benzoate] | – | 17 | 0 | 17 | > 3000 | – | – |
| COC(=O)c1ccc(CSc2ccc(F)cc2)cc1 [UPHD-00046, methyl 4-{[(4-fluoro-phenyl)sul-fanyl]methyl}benzoate] | – | 17 | 30 | 20 | > 3000 | – | – |
| COC(=O)CCCCCSc1ccccc1 [UPHD-00047, methyl 6-(phenyl-sulfanyl)hexanoate] | – | 100 | 100 | 100 | 400 | – | – |
| COC(=O)CCCCCSc1ccc(F)cc1 [UPHD-00048, methyl 6-[(4-fluoro-phenyl)sulfanyl]hexanoate] | – | 100 | 100 | 100 | 280 | – | – |
| Nc1ccccc1NC(=O)CCCCCSc1ccccc1 [UPHD-00049, N-(2-aminophenyl)-6-(phenylsulfanyl)hexanamide] | – | 60 | 95 | 100 | 890 | 35 | 5 |
| O=C(CCCCCSc1ccccc1)NO [UPHD-00050, N-hydroxy-6-(phenyl-sulfanyl)hexanamide] | – | 0 | 0 | 0 | > 3000 | – | – |
| O=C(CCCCCSc1ccc(F)cc1)NO [UPHD-00051, 6-[(4-fluoro-phenyl)sulfanyl]-N-hydroxyhexanamide] | – | – | – | 86.7 | 1900 | – | – |
| O=C(NO)c1ccc(CSc2ccccc2)cc1 [UPHD-00052, N-hydroxy-4-[(phenyl-sulfanyl)methyl]benzamide] | – | 0 | 10 | – | > 3000 | 0 | 0 |
| Nc1ccccc1NC(=O)CCCCCSc1ccc(F)cc1 [UPHD-00053, N-(2-aminophenyl)-6-[(4-fluoro-phenyl)sulfanyl]hexanamide] | – | 85 | 100 | 100 | 790 | 5 | 20 |
| COC(=O)CCCCCSc1ccc2ccccc2c1 [UPHD-00057, methyl 6-(naphthalen-2-ylsulfanyl)hexanoate] | – | 11 | 18 | 29 | > 3000 | 19 | 19 |
| COC(=O)CCCCCSc1ncccn1 [UPHD-00058, methyl 6-(pyrimidin-2-ylsulfanyl)hexanoate] | – | 20 | 28 | 6 | > 3000 | 33 | 17 |
| O=C(CCCCCSc1ccc2ccccc2c1)NO [UPHD-00059, N-hydroxy-6-(naphthalen-2-ylsulfanyl)hexanamide] | – | 12 | 16 | 33 | > 3000 | 5 | 0 |
| Nc1ccccc1NC(=O)CCCCCSc1ccc2ccccc2c1 [UPHD-00060, N-(2-aminophenyl)-6-(naphthalen-2-ylsulfanyl)hexanamide] | – | 10 | 20 | 5 | > 3000 | 0 | 5 |
| O=C(NO)c1ccc(CCSc2ccccc2)cc1 [UPHD-00061, N-hydroxy-4-[2-(phenyl-sulfanyl)ethyl]benzamide] | – | 0 | 6 | 37 | > 3000 | 0 | 5.5 |
| COC(=O)CCCCCSc1nc2ccccc2s1 [UPHD-00062] | – | 0 | 0 | 0 | > 3000 | 12 | 11 |
